{
  "source": "patent US8815796B2",
  "about": "“Polyheterocyclic compounds highly potent as HCV inhibitors” (AB Pharma Ltd., priority 2010, dated 2014)",
  "data": [
    {"biological_target": "T1, HCV NS3-4A protease (Hepatitis C virus genotype 1a, UniProt P27958)", "T1 construct": "HCV NS3-4A protease", "T1 sequence (P27958 1027-1657)": "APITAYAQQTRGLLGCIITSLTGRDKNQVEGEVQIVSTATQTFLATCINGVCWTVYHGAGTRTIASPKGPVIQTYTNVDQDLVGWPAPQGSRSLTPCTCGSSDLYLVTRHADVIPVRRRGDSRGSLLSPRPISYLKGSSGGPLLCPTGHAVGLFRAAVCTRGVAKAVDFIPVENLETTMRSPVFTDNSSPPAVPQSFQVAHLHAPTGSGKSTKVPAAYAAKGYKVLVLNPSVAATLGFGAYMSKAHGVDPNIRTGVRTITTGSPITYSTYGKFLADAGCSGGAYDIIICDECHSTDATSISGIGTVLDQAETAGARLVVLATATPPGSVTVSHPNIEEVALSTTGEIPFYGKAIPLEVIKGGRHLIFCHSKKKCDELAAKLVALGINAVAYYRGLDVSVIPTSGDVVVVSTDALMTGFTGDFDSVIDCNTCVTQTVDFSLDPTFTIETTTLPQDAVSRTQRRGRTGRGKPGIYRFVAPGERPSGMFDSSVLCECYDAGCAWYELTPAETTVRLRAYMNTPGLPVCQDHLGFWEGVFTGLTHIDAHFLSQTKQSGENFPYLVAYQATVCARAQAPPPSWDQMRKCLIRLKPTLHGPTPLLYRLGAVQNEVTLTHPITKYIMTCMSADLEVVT", "T1 sequence (P27958 1658-1711)": "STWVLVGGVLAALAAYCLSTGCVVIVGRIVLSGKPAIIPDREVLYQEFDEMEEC", "assay": "HCV NS3-4A protease assay in vitro (FRET-S substrate)", "type": "biochemical", "details": "not given", "experimental": "(§1) HCV NS3-4A Protease Assay In Vitro.\n(§2) The assay was conducted in Buffer A containing 30 mM NaCl, 5 mM CaCl2, 10 mM DTT, 50 mM Tris (pH7.8), using the Ac-Asp-Glu-Asp(EDANS)-Glu-Glu-Abu-ψ-[COO]-Ala-Ser-Lys (DABCYL)-NH2 (FRET-S) fluorescent peptide (AnaSpec, USA) as substrate. Briefly, 140 μL buffer A, 20 μL compounds dissolved in buffer A with different concentration and 20 μL HCV NS3-4A protease diluted in buffer A were added into 96-well plate respectively and mixed well. The reaction was initiate with adding 20 μL of FRET-S. Reactions were continuously monitored at 37° C. using a BMG Polarstar Galaxy (MTX Lab Systems, Inc. USA), with excitation and emission filters of 355 nm and 520 nm, respectively. The 50% inhibitory concentration (IC50) was calculated with Reed & Muench methods.", "units": {"IC50": "nM"}, "values": [
      {"compound": "CC[C@H]1C[C@@]1(NC(=O)C1C[C@@H](OC(=O)N2Cc3cc4c(cc3C2)OCO4)CN1C(=O)[C@@H](NC(=O)[C@@H](NC(=O)OCC1c2ccccc2-c2ccccc21)C1CCCCC1)C(C)(C)C)C(=O)NS(=O)(=O)C1CC1", "note": "(stereo partly drawn) [Compound 30aa]", "IC50": "< 30"},
      {"compound": "CCOC(=O)N[C@H](C(=O)N[C@H](C(=O)N1C[C@H](OC(=O)N2Cc3cc4c(cc3C2)OCO4)CC1C(=O)N[C@@]1(C(=O)NS(=O)(=O)C2CC2)C[C@@H]1CC)C(C)(C)C)C1CCCCC1", "note": "(stereo partly drawn) [Compound 30v]", "IC50": "< 30"},
      {"compound": "C=C[C@H]1C[C@@]1(NC(=O)C1C[C@@H](OC(=O)N2Cc3cc4c(cc3C2)OCO4)CN1C(=O)[C@@H](NC(=O)[C@@H](NC(=O)NC(C)(C)C)C1CCCCC1)C(C)(C)C)C(=O)NS(=O)(=O)C1CC1", "note": "(stereo partly drawn) [Compound 30ab]", "IC50": "< 30"},
      {"compound": "CC[C@H]1C[C@@]1(NC(=O)C1C[C@@H](OC(=O)N2Cc3cc4c(cc3C2)OCO4)CN1C(=O)[C@@H](NC(=O)[C@@H](NC(=O)OC(C)C)C1CCCCC1)C(C)(C)C)C(=O)NS(=O)(=O)C1CC1", "note": "(stereo partly drawn) [Compound 30w]", "IC50": "< 30"},
      {"compound": "CC[C@H]1C[C@@]1(NC(=O)C1C[C@@H](OC(=O)N2Cc3cc4c(cc3C2)OCO4)CN1C(=O)[C@@H](NC(=O)[C@@H](NC(=O)c1cnccn1)C1CCCCC1)C(C)(C)C)C(=O)NS(=O)(=O)C1CC1", "note": "(stereo partly drawn) [Compound 30b]", "IC50": "< 30"},
      {"compound": "CC[C@H]1C[C@@]1(NC(=O)C1C[C@@H](OC(=O)N2Cc3cc4c(cc3C2)OCCCO4)CN1C(=O)[C@@H](NC(=O)[C@@H](NC(=O)c1cnccn1)C1CCCCC1)C(C)(C)C)C(=O)NS(=O)(=O)C1CC1", "note": "(stereo partly drawn) [Compound 30h]", "IC50": "< 30"},
      {"compound": "CC[C@H]1C[C@@]1(NC(=O)C1C[C@@H](OC(=O)N2Cc3cc4c(cc3C2)OCCCO4)CN1C(=O)[C@@H](NC(=O)[C@@H](NC(=O)OC(C)(C)C)C1CCCCC1)C(C)(C)C)C(=O)NS(=O)(=O)C1CC1", "note": "(stereo partly drawn) [Compound 30ad]", "IC50": "30 to 200"},
      {"compound": "CC[C@H]1C[C@@]1(NC(=O)C1C[C@@H](OC(=O)N2Cc3cc4c(cc3C2)OCO4)CN1C(=O)[C@@H](NC(=O)[C@@H](NC(=O)OCc1ccccc1)C1CCCCC1)C(C)(C)C)C(=O)NS(=O)(=O)C1CC1", "note": "(stereo partly drawn) [Compound 30y]", "IC50": "< 30"},
      {"compound": "C=C[C@H]1C[C@@]1(NC(=O)C1C[C@@H](OC(=O)N2Cc3cc4c(cc3C2)OCCCO4)CN1C(=O)[C@@H](NC(=O)[C@@H](NC(=O)c1cnccn1)C1CCCCC1)C(C)(C)C)C(=O)NS(=O)(=O)C1CC1", "note": "(stereo partly drawn) [Compound 30g]", "IC50": "< 30"},
      {"compound": "C=C[C@H]1C[C@@]1(NC(=O)C1C[C@@H](OC(=O)N2Cc3cccc(F)c3C2)CN1C(=O)[C@@H](NC(=O)[C@@H](NC(=O)c1cnccn1)C1CCCCC1)C(C)(C)C)C(=O)NS(=O)(=O)C1CC1", "note": "(stereo partly drawn) [Compound 30k]", "IC50": "< 30"},
      {"compound": "CC[C@H]1C[C@@]1(NC(=O)C1C[C@@H](OC(=O)N2Cc3cc4c(cc3C2)OCCCO4)CN1C(=O)[C@@H](NC(=O)[C@@H](NC(=O)OC1CCCC1)C1CCCCC1)C(C)(C)C)C(=O)NS(=O)(=O)C1CC1", "note": "(stereo partly drawn) [Compound 30ae]", "IC50": "30 to 200"},
      {"compound": "CC[C@H]1C[C@@]1(NC(=O)C1C[C@@H](OC(=O)N2Cc3ccc4c(c3C2)OCCCO4)CN1C(=O)[C@@H](NC(=O)[C@@H](NC(=O)c1cnccn1)C1CCCCC1)C(C)(C)C)C(=O)NS(=O)(=O)C1CC1", "note": "(stereo partly drawn) [Compound 30j]", "IC50": "< 30"}
    ]},
    {"biological_target": "T1, HCV NS3-4A protease", "assay": "HCV NS3-4A protease assay in vitro (FRET-S substrate)", "type": "biochemical", "details": "HCV NS3-4A protease inhibition, 37° C., class symbols; read-out: NS3-NS4A IC50", "experimental": "as §1, §2", "units": {"IC50": "nM"}, "values": [
      {"compound": "C=C[C@H]1C[C@@]1(NC(=O)C1C[C@@H](OC(=O)N2Cc3ccc4c(c3C2)OCO4)CN1C(=O)[C@@H](NC(=O)OC1CCCC1)C(C)(C)C)C(=O)NS(=O)(=O)C1CC1", "note": "(stereo partly drawn) [Compound 30an]", "IC50": "< 30"},
      {"compound": "CC(C)(C)OC(=O)N([C@H]1CCCCC/C=C\\[C@@H]2C[C@@]2(C(=O)NS(=O)(=O)C2CC2)NC(=O)[C@@H]2C[C@@H](OC(=O)N3Cc4ccc5c(c4C3)OCO5)CN2C1=O)S(C)(=O)=O", "note": "[Compound 12t]", "IC50": "< 30"},
      {"compound": "CC(C)S(=O)(=O)NC(=O)[C@@]12C[C@H]1/C=C\\CCCCC[C@H](NC(=O)OC(C)(C)C)C(=O)N1C[C@H](OC(=O)N3Cc4cc5c(cc4C3)OCCO5)C[C@H]1C(=O)N2", "note": "[Compound 12g]", "IC50": "< 30"},
      {"compound": "O=C1N[C@]2(C(=O)NS(=O)(=O)C3CC3)C[C@H]2/C=C\\CCCCC[C@H](N2CCCS2(=O)=O)C(=O)N2C[C@H](OC(=O)N3Cc4cccc(F)c4C3)C[C@@H]12", "note": "[Compound 12m]", "IC50": "30 to 200"},
      {"compound": "CC(C)S(=O)(=O)NC(=O)[C@@]12C[C@H]1/C=C\\CCCCC[C@H](NC(=O)OC(C)(C)C)C(=O)N1C[C@H](OC(=O)N3Cc4ccc5c(c4C3)OCCO5)C[C@H]1C(=O)N2", "note": "[Compound 12f]", "IC50": "< 30"},
      {"compound": "CC(C)(C)OC(=O)N[C@H]1CCCCC/C=C\\[C@@H]2C[C@@]2(C(=O)NS(=O)(=O)C2CC2)NC(=O)[C@@H]2C[C@@H](OC(=O)N3Cc4cc5c(cc4C3)OCCCO5)CN2C1=O", "note": "[Compound 12p]", "IC50": "< 30"},
      {"compound": "CN1CCCC/C=C\\[C@@H]2C[C@@]2(C(=O)NS(=O)(=O)C2CC2)NC(=O)[C@@H]2C[C@@H](OC(=O)N3Cc4cc5c(cc4C3)OCO5)CC2C1=O", "note": "(stereo partly drawn) [Compound 21c]", "IC50": "< 30"},
      {"compound": "O=C1N[C@]2(C(=O)NS(=O)(=O)C3CC3)C[C@H]2/C=C\\CCCCN(C2CC2)C(=O)C2C[C@H](OC(=O)N3Cc4ccc5c(c4C3)OCO5)C[C@@H]12", "note": "(stereo partly drawn) [Compound 21f]", "IC50": "30 to 200"},
      {"compound": "CC(C)S(=O)(=O)NC(=O)[C@@]12C[C@H]1/C=C\\CCCCC[C@H](NC(=O)OC(C)(C)C)C(=O)N1C[C@H](OC(=O)N3Cc4ccc5c(c4C3)OCO5)C[C@H]1C(=O)N2", "note": "[Compound 12e]", "IC50": "< 30"},
      {"compound": "O=C1N[C@]2(C(=O)NS(=O)(=O)C3CC3)C[C@H]2/C=C\\CCCCCN(C2CC2)C(=O)N2CC(OC(=O)N3Cc4cccc(F)c4C3)C[C@@H]12", "note": "(stereo partly drawn) [Compound 27-Ref-2, reference compound]", "IC50": "30 to 200"},
      {"compound": "O=C1N[C@]2(C(=O)NS(=O)(=O)C3CC3)C[C@H]2/C=C\\CCCCCN(C2CC2)C(=O)C2C[C@H](OC(=O)N3Cc4cc5c(cc4C3)OCO5)C[C@@H]12", "note": "(stereo partly drawn) [Compound 21b]", "IC50": "30 to 200"},
      {"compound": "CN1CCCCC/C=C\\[C@@H]2C[C@@]2(C(=O)NS(=O)(=O)C2CC2)NC(=O)[C@@H]2CC(OC(=O)N3Cc4cc5c(cc4C3)OCCO5)CN2C1=O", "note": "(stereo partly drawn) [Compound 27b]", "IC50": "30 to 200"},
      {"compound": "CC(C)(C)OC(=O)N([C@H]1CCCCC/C=C\\[C@@H]2C[C@@]2(C(=O)NS(=O)(=O)C2CC2)NC(=O)[C@@H]2C[C@@H](OC(=O)N3Cc4cccc(F)c4C3)CN2C1=O)S(C)(=O)=O", "note": "[Compound 12u]", "IC50": "< 30"},
      {"compound": "CC(C)(C)OC(=O)N[C@H]1CCCCC/C=C\\[C@@H]2C[C@@]2(C(=O)NS(=O)(=O)C2CC2)NC(=O)[C@@H]2C[C@@H](OC(=O)N3Cc4cccc(F)c4C3)CN2C1=O", "note": "[Compound 12-Ref, reference compound]", "IC50": "< 30"},
      {"compound": "C=C[C@H]1C[C@@]1(NC(=O)C1C[C@@H](OC(=O)N2Cc3cc4c(cc3C2)OCO4)CN1C(=O)[C@@H](NC(=O)OC(C)(C)C)C(C)(C)C)C(=O)NS(=O)(=O)C1CC1", "note": "(stereo partly drawn) [Compound 30af]", "IC50": "< 30"},
      {"compound": "CN1CCCCC/C=C\\[C@@H]2C[C@@]2(C(=O)NS(=O)(=O)C2CC2)NC(=O)[C@@H]2CC(OC(=O)N3Cc4cccc(F)c4C3)CN2C1=O", "note": "(stereo partly drawn) [Compound 27-Ref, reference compound]", "IC50": "30 to 200"},
      {"compound": "CC[C@H]1C[C@@]1(NC(=O)C1C[C@@H](OC(=O)N2Cc3cc4c(cc3C2)OCO4)CN1C(=O)[C@@H](NC(=O)[C@@H](NS(=O)(=O)c1ccc2ccccc2c1)C1CCCCC1)C(C)(C)C)C(=O)NS(=O)(=O)C1CC1", "note": "(stereo partly drawn) [Compound 30s]", "IC50": "< 30"},
      {"compound": "O=C1N[C@]2(C(=O)NS(=O)(=O)C3CC3)C[C@H]2/C=C\\CCCCC[C@H](NS(=O)(=O)c2ccc(Cl)cc2)C(=O)N2C[C@H](OC(=O)N3Cc4cc5c(cc4C3)OCO5)C[C@@H]12", "note": "[Compound 16a]", "IC50": "< 30"}
    ]}
  ]
}
